The source of these data is PubChem BioAssay AID330 (DTP/NCI, 2004).

Several values for one entry are separate records, joined by “and”; a condition that tells them apart may be missing. Equal values may be shown once. Inconclusive results and toxic doses are left out.

This assay deals with P388 leukemia ip, CD2F1 mice, survival T/C. As to the kind of experiment: NCI In Vivo Anticancer Drug Screen. Data for tumor model P388 Leukemia (intraperitoneal) in CD2F1 (CDF1) mice. The settings on record: endpoint: median survival time, higher = longer survival. In short, it runs like this: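 Mice carrying the transplanted tumor received test compound or vehicle. Survival was recorded in each group, and the value is the treated-group measurement divided by that of the vehicle-treated control group.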

[1] abbreviates: dose: 50.0 mg/kg/injection, schedule: Q01DX009 (ip), vehicle: saline.
Setting [2] is: dose: 100.0 mg/kg/injection, schedule: Q01DX009 (ip), vehicle: saline.
Setting [3] is: dose: 200.0 mg/kg/injection, schedule: Q01DX009 (ip), vehicle: saline.
Setting [4] is: dose: 50.0 mg/kg/injection, schedule: Q01DX009 (ip), vehicle: saline with Tween-80.
The mark [5] stands for this setting: dose: 100.0 mg/kg/injection, schedule: Q01DX009 (ip), vehicle: saline with Tween-80.
The mark [6] stands for this setting: dose: 50.0 mg/kg/injection, schedule: Q01DX005 (ip), vehicle: saline with Tween-80.
Where [7] appears, read: dose: 100.0 mg/kg/injection, schedule: Q01DX005 (ip), vehicle: saline with Tween-80.
The mark [8] stands for this setting: dose: 200.0 mg/kg/injection, schedule: Q01DX005 (ip), vehicle: saline with Tween-80.
Setting [9] is: dose: 25.0 mg/kg/injection, schedule: Q01DX009 (ip), vehicle: saline with Tween-80.
Where [10] appears, read: dose: 200.0 mg/kg/injection, schedule: Q01DX009 (ip), vehicle: saline with Tween-80.
Setting [11] is: dose: 50.0 mg/kg/injection, schedule: Q01DX005 (ip), vehicle: Klucel (hydroxypropylcellulose) (HPC).
[12] abbreviates: dose: 100.0 mg/kg/injection, schedule: Q01DX005 (ip), vehicle: Klucel (hydroxypropylcellulose) (HPC).
Setting [13] is: dose: 200.0 mg/kg/injection, schedule: Q01DX005 (ip), vehicle: Klucel (hydroxypropylcellulose) (HPC).
[14] abbreviates: dose: 60.0 mg/kg/injection, schedule: Q01DX005 (ip), vehicle: Klucel (hydroxypropylcellulose) (HPC).
The mark [15] stands for this setting: dose: 120.0 mg/kg/injection, schedule: Q01DX005 (ip), vehicle: Klucel (hydroxypropylcellulose) (HPC).

Regarding `CC(=O)c1ccc(Nc2cc(C)nc(N)n2)cc1`, the T/C (dose: 15.0 mg/kg/injection, schedule: Q01DX005 (ip), vehicle: saline with Tween-80) was 103 % of control; the T/C (dose: 30.0 mg/kg/injection, schedule: Q01DX005 (ip), vehicle: saline with Tween-80) was 104 % of control; the T/C (dose: 60.0 mg/kg/injection, schedule: Q01DX005 (ip), vehicle: saline with Tween-80) was 100 % of control and 105 % of control; the T/C (dose: 100.0 mg/kg/injection, schedule: Q04DX002 (ip), vehicle: saline with Tween-80) is 112 % of control; the T/C (dose: 200.0 mg/kg/injection, schedule: Q04DX002 (ip), vehicle: saline with Tween-80) is 96 % of control; the T/C (dose: 400.0 mg/kg/injection, schedule: Q04DX002 (ip), vehicle: saline with Tween-80) was 99 % of control.

Take `CC1C(=O)C(C)C(c2ccccc2Cl)OC1c1ccccc1Cl` (stereo not drawn): the T/C by setting is: under setting [1], 112 % of control; under setting [2], 102 % of control; under setting [3], 96 % of control.

Regarding `CC1(C)CCCc2c(-c3ccccc3)cc3c4ccccc4cc[n+]3c21`, the T/C runs as follows: under setting [4], 89 % of control; under setting [5], 88 % of control.

Turning to `C1=CC2OC1c1cc3c(cc12)[C@@H]1C=C[C@@H]3O1`, the T/C by setting is: under setting [6], 96 % of control; under setting [7], 105 % of control; under setting [8], 91 % of control.

Regarding `COc1cccc2cc(C)[nH]c12`, the T/C was 97 % of control under setting [9], 97 % of control under setting [4] and 103 % of control under setting [5].

Turning to `CN(CCC#N)c1ccc(/C=C(\C#N)C(N)=O)cc1`, the T/C is, setting by setting: (dose: 20.0 mg/kg/injection, schedule: Q01DX009 (ip), vehicle: saline with Tween-80) 101 % of control; under setting [9], 97 % of control; (dose: 40.0 mg/kg/injection, schedule: Q01DX009 (ip), vehicle: saline with Tween-80) 89 % of control; under setting [4], 98 % of control; under setting [5], 97 % of control; (dose: 160.0 mg/kg/injection, schedule: Q01DX009 (ip), vehicle: saline with Tween-80) 90 % of control. Further, under setting [10], the T/C was 97 % of control.

As to `COC(=O)C1c2ccc(OC)c(OC)c2C(=O)N2CCc3cc(OC)c(OC)cc3C12` (stereo not drawn), the T/C was 93 % of control (dose: 50.0 mg/kg/injection, schedule: Q04DX003 (ip), vehicle: distilled water + Tween-80); 96 % of control (dose: 100.0 mg/kg/injection, schedule: Q04DX003 (ip), vehicle: distilled water + Tween-80); 87 % of control (dose: 200.0 mg/kg/injection, schedule: Q04DX003 (ip), vehicle: distilled water + Tween-80); 110 % of control (dose: 400.0 mg/kg/injection, schedule: Q04DX003 (ip), vehicle: distilled water + Tween-80).

On to `COc1cccc2c1C(=O)c1c(O)c3c(c(O)c1C2=O)C[C@@](O)(/C=N\O)C[C@@H]3OC1CC(N)C(O)C(C)O1` (stereo partly drawn), for which the T/C was 109 % of control (dose: 3.13 mg/kg/injection, schedule: Q04DX003 (ip), vehicle: water); 118 % of control (dose: 6.25 mg/kg/injection, schedule: Q04DX003 (ip), vehicle: water); 116 % of control (dose: 12.5 mg/kg/injection, schedule: Q04DX003 (ip), vehicle: water); 111 % of control (dose: 25.0 mg/kg/injection, schedule: Q04DX003 (ip), vehicle: water); 163 % of control (dose: 50.0 mg/kg/injection, schedule: Q04DX003 (ip), vehicle: water).

As for `CCOC(=O)c1cccc2c(=O)c3c([nH]c12)C(=O)c1c([nH]c2c(C(=O)OCC)cccc2c1=O)C3=O`, the T/C (dose: 50.0 mg/kg/injection, schedule: Q01DX009 (ip), vehicle: Klucel (hydroxypropylcellulose) (HPC)) was 98 % of control; the T/C (dose: 100.0 mg/kg/injection, schedule: Q01DX009 (ip), vehicle: Klucel (hydroxypropylcellulose) (HPC)) is 90 % of control; the T/C (dose: 200.0 mg/kg/injection, schedule: Q01DX009 (ip), vehicle: Klucel (hydroxypropylcellulose) (HPC)) is 90 % of control.

As for `COc1ccc2oc3cc4c(c(O)c3c(=O)c2c1CC=C(C)C)C=CC(C)(C)O4`, the T/C is 88 % of control under setting [11], 86 % of control under setting [12] and 87 % of control under setting [13].

For the molecule `CCOC(=O)C1(C#N)C(c2ccccc2)C(OC)(OC)C1(OC)OC` (stereo not drawn), the T/C under setting [14] was 100 % of control; the T/C under setting [15] was 102 % of control; the T/C (dose: 240.0 mg/kg/injection, schedule: Q01DX005 (ip), vehicle: Klucel (hydroxypropylcellulose) (HPC)) is 99 % of control.

In the case of `Cn1c2nc(-[n+]3ccc(-c4ccccc4)cc3)nc-2c([O-])n(C)c1=O`, the T/C was 99 % of control (dose: 100.0 mg/kg/injection, schedule: Q04DX003 (ip), vehicle: saline) and 89 % of control (dose: 200.0 mg/kg/injection, schedule: Q04DX003 (ip), vehicle: saline).

On to `CC1(C)NC1C(O)c1ccccc1` (stereo not drawn), for which the T/C is 102 % of control under setting [1], 103 % of control under setting [2] and 104 % of control under setting [3].

In the case of `COC1C2=C(CCCC2)OC(=O)C1(Cl)c1ccccc1` (stereo not drawn), the T/C reads like this: under setting [11], 96 % of control; under setting [12], 101 % of control; under setting [13], 101 % of control.

Regarding `C=CO/C(C)=C(\[Se]c1ccccc1)C(C)=O`, the T/C under setting [1] was 99 % of control, the T/C under setting [2] is 100 % of control and the T/C under setting [3] was 104 % of control.

For the molecule `CN1CCS(=O)(=O)C2CCCCC2C1=O` (stereo not drawn), the T/C is 96 % of control under setting [4], 104 % of control under setting [5] and 96 % of control under setting [10].

With `CS/N=C(\c1ccccc1)N(C)C`, the T/C (dose: 7.5 mg/kg/injection, schedule: Q01DX005 (ip), vehicle: Klucel (hydroxypropylcellulose) (HPC)) was 97 % of control and the T/C (dose: 15.0 mg/kg/injection, schedule: Q01DX005 (ip), vehicle: Klucel (hydroxypropylcellulose) (HPC)) was 100 % of control.

On to `Clc1cccc2c(SCCCCCCSc3c4ccccc4nc4c(Cl)cccc34)c3ccccc3nc12`, for which the T/C by setting is: under setting [14], 92 % of control; under setting [15], 88 % of control.

As for `CCc1nc(N)nc(N)c1-c1ccc(OC)c(N)c1`, the T/C was 102 % of control and 116 % of control under setting [6]; 112 % of control under setting [7]; 119 % of control under setting [8].

On to `Cn1c2ccccc2c(=O)c2c(O)cc3c(c21)C=CC(C)(C)O3`, for which the T/C (dose: 0.38 mg/kg/injection, schedule: Q01DX009 (ip), vehicle: Klucel (hydroxypropylcellulose) (HPC)) is 107 % of control; the T/C (dose: 0.38 mg/kg/injection, schedule: Q01DX009 (ip), vehicle: saline with Tween-80) was 95 % of control; the T/C (dose: 0.75 mg/kg/injection, schedule: Q01DX009 (ip), vehicle: Klucel (hydroxypropylcellulose) (HPC)) was 102 % of control and 97 % of control; the T/C (dose: 0.75 mg/kg/injection, schedule: Q01DX009 (ip), vehicle: saline with Tween-80) was 98 % of control; the T/C (dose: 1.5 mg/kg/injection, schedule: Q01DX009 (ip), vehicle: Klucel (hydroxypropylcellulose) (HPC)) was 99 % of control and 103 % of control; the T/C (dose: 1.5 mg/kg/injection, schedule: Q01DX009 (ip), vehicle: saline with Tween-80) is 94 % of control. In addition, the T/C is, setting by setting: (dose: 1.56 mg/kg/injection, schedule: Q01DX009 (ip), vehicle: Klucel (hydroxypropylcellulose) (HPC)) 124 % of control; (dose: 3.0 mg/kg/injection, schedule: Q01DX009 (ip), vehicle: Klucel (hydroxypropylcellulose) (HPC)) 102 % of control and 103 % of control; (dose: 3.0 mg/kg/injection, schedule: Q01DX009 (ip), vehicle: saline with Tween-80) 94 % of control; (dose: 3.12 mg/kg/injection, schedule: Q01DX009 (ip), vehicle: Klucel (hydroxypropylcellulose) (HPC)) 101 % of control; (dose: 6.25 mg/kg/injection, schedule: Q01DX009 (ip), vehicle: Klucel (hydroxypropylcellulose) (HPC)) 102 % of control; (dose: 12.5 mg/kg/injection, schedule: Q01DX009 (ip), vehicle: Klucel (hydroxypropylcellulose) (HPC)) 100 % of control.

Take `Cc1cc2c(cc1C)C(=O)C(N1CCOCC1)CCO2` (stereo not drawn): the T/C is, setting by setting: (dose: 100.0 mg/kg/injection, schedule: Q04DX003 (ip), vehicle: saline with Tween-80) 99 % of control; (dose: 200.0 mg/kg/injection, schedule: Q04DX003 (ip), vehicle: saline with Tween-80) 99 % of control; (dose: 400.0 mg/kg/injection, schedule: Q04DX003 (ip), vehicle: saline with Tween-80) 96 % of control.
